Experiments:
[1] = target: T1, hTLR8 (Homo sapiens, UniProt Q9NR97); test: Human TLR8 Reporter Assay; format: cell-based; settings: HEK-Blue hTLR8 cells, 16 hours, normalized to tl8-506 (1 μM) and DMSO
T1 construct: host or cells: HEK-Blue hTLR8 cells (HEK293-derived, own knowledge)
T1 sequence (Q9NR97 27-1041): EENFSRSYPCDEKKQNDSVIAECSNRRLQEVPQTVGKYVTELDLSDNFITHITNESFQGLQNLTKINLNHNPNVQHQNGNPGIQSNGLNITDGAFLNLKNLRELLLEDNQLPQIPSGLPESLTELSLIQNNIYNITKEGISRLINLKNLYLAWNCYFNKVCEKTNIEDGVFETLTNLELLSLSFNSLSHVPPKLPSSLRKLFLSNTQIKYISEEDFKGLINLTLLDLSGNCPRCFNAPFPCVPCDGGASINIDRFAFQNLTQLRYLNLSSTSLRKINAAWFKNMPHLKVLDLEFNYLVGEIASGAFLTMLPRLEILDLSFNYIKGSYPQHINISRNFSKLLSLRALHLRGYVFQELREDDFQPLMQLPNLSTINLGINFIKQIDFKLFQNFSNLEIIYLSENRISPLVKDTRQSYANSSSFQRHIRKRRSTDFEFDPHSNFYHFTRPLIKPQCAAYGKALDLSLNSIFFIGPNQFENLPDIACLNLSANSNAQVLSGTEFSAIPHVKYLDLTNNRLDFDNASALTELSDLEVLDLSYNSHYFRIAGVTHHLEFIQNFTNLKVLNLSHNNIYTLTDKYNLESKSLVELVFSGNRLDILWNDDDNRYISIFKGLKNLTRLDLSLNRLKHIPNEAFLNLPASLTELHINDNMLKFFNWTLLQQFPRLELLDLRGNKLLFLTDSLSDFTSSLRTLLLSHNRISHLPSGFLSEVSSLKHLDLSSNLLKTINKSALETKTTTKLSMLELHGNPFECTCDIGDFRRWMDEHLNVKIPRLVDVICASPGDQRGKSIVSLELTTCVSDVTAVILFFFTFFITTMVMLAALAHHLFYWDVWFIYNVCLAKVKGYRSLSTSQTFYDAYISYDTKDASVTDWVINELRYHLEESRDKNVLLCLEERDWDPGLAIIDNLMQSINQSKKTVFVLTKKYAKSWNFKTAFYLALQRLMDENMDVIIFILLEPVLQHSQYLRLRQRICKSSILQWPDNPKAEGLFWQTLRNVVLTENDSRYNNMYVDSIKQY
Method in brief: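 HEK-Blue hTLR8 cells (20,000/well) incubated 16 h at 37 °C with 10-point 3-fold compound dilutions in HEK-Blue Detection medium; reporter read as absorbance at 620 nm. Effects normalized between DMSO and tl8-506 (1 μM); EC50 from 4-parameter fit.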

[2] = target: T2, hTLR7 (Homo sapiens, UniProt Q9NYK1); test: Human TLR7 Reporter Assay; format: cell-based; settings: HEK-Blue hTLR7 cells, 16 hours, normalized to CL097 (6 μM) and DMSO
T2 construct: host or cells: HEK-Blue hTLR7 cells (HEK293-derived, own knowledge)
T2 sequence (Q9NYK1 27-1049): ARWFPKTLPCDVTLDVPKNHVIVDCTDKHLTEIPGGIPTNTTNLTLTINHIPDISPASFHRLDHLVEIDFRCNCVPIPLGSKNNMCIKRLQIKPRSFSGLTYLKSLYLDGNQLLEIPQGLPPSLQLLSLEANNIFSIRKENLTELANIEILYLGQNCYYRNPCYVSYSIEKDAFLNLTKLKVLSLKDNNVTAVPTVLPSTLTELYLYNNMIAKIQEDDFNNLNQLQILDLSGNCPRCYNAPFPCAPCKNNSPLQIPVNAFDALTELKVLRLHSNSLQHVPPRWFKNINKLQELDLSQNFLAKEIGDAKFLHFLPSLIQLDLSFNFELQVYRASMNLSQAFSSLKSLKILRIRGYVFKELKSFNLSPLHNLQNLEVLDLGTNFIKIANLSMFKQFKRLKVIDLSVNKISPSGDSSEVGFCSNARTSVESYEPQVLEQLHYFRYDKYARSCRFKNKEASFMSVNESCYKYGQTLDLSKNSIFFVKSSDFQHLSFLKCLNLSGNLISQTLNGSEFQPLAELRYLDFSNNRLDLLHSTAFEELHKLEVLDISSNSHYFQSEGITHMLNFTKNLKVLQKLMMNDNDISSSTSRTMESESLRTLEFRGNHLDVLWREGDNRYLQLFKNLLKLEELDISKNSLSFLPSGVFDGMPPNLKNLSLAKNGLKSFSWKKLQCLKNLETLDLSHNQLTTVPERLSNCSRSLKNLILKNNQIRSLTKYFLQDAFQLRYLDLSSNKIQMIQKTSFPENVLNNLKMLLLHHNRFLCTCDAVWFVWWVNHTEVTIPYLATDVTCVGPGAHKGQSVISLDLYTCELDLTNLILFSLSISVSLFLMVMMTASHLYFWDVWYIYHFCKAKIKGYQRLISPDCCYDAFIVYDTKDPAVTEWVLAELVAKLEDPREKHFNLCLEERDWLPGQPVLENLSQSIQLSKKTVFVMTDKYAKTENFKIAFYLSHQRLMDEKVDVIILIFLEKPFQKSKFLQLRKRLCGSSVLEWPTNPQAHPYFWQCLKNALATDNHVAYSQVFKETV
Method in brief: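 HEK-Blue hTLR7 reporter cells (20,000/well) incubated 16 h at 37 °C with 10-point 3-fold compound dilutions; SEAP read by absorbance at 620 nm. Effects normalized between CL097 (6 μM) and DMSO controls; EC50 from 4-parameter fit.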

Structure (SMILES) | EC50 [1] | EC50 [2]
CCCCNc1nc(N)nc2cn(Cc3ccc(C(C)N(C)C)cc3OC)nc12 (stereo not drawn) [Compound 219] | 275 nM | 122 nM
CCCCNc1nc(N)nc2cn(Cc3ccc(C(C)N(C)C)cc3OC)nc12 (stereo not drawn) [Compound 220] | 170 nM | 118 nM
CCC[C@@H](CO)Nc1nc(N)nc2cn(Cc3c(OC)cc(C(CN)N(C)CCC)cc3OC)nc12 (stereo partly drawn) [Compound 221] | 3490 nM | 5090 nM
CCC[C@@H](CO)Nc1nc(N)nc2cn(Cc3c(OC)cc(C(C)N)cc3OC)nc12 (stereo partly drawn) [Compound 222] | 1070 nM | 6280 nM
CCC[C@@H](CO)Nc1nc(N)nc2cn(Cc3c(OC)cc(C(CN)N(C)CCC)cc3OC)nc12 (stereo partly drawn) [Compound 223] | 1800 nM | 4840 nM
CCC[C@@H](CO)Nc1nc(N)nc2cn(Cc3c(OC)cc(C(C)N)cc3OC)nc12 (stereo partly drawn) [Compound 224] | 2250 nM | 3650 nM
CCCCNc1nc(N)nc2cn(Cc3ccc(C(N)CN)cc3OC)nc12 (stereo not drawn) [Compound 227] | 10800 nM | 10700 nM
CCCCNc1nc(N)nc2cn(Cc3ccc(C(N)CCN)cc3OC)nc12 (stereo not drawn) [Compound 228] | 7020 nM | 2370 nM
CCCCNc1nc(N)nc2cn(Cc3ccc(C(N)CCN)cc3OC)nc12 (stereo not drawn) [Compound 229] | 11400 nM | 2270 nM
CCCCNc1nc(N)nc2cn(Cc3c(OC)cc(SC[C@H](N)C(=O)O)cc3OC)nc12 [Compound 230] | 8840 nM | 898 nM
CCCNC(C)c1ccc(Cn2cc3nc(N)nc(N[C@H](CO)CCC)c3n2)c(OC)c1 (stereo partly drawn) [Compound 231] | 48.9 nM | 619 nM
CCCNC(C)c1ccc(Cn2cc3nc(N)nc(N[C@H](CO)CCC)c3n2)c(OC)c1 (stereo partly drawn) [Compound 232] | 78.1 nM | 363 nM
CCCCNc1nc(N)nc2cn(Cc3ccc(C(C)N(C)CCC)cc3OC)nc12 (stereo not drawn) [Compound 233] | 456 nM | 32.3 nM
CCCCNc1nc(N)nc2cn(Cc3ccc(C4CNCCN4)cc3OC)nc12 (stereo not drawn) [Compound 234] | 9820 nM | 1490 nM
CCCCNc1nc(N)nc2cn(Cc3ccc4c(c3)CCC4N)nc12 (stereo not drawn) [Compound 235] | 2470 nM | 361 nM
CCCCNc1nc(N)nc2cn(Cc3ccc(C4CCCN4)cc3OC)nc12 (stereo not drawn) [Compound 236] | 2870 nM | 241 nM
CCCCNc1nc(N)nc2cn(Cc3ccc(C4CCNC4)cc3OC)nc12 (stereo not drawn) [Compound 237] | 7250 nM | 616 nM
CCCCNc1nc(N)nc2cn(Cc3ccc4c(c3)CCC4N)nc12 (stereo not drawn) [Compound 238] | 1880 nM | 254 nM
CCCCNc1nc(N)nc2cn(Cc3ccc(C4CCCN4)cc3OC)nc12 (stereo not drawn) [Compound 239] | 2600 nM | 154 nM
CCCCNc1nc(N)nc2cn(Cc3ccc(C(C)N(C)CCC)cc3OC)nc12 (stereo not drawn) [Compound 240] | 1090 nM | 50.7 nM
CCCCNc1nc(N)nc2cn(Cc3ccc(C(C)N(C)CCC)cc3OC)nc12 (stereo not drawn) [Compound 241] | 725 nM | 36 nM
